Assay results as given in patent publication US12521356B2, “Compositions and methods for treating pain, inflammation, infection, malaria, and sepsis” (Duke University, priority 2018, dated 2026).

Columns and labels:
[1] = system: GPR37; assay: Ca2+ imaging (Fluo-4AM) in peritoneal macrophages (pMΦ) from WT and Gpr37−/− mice; format: cell-based, mouse; settings: 30 nM; Gpr37-deficient pMΦ
Method: (§1) Peritoneal macrophage culture. Peritoneal macrophages were collected by peritoneal lavage with 10 ml warm PBS containing of 1 mM EDTA. Cells were incubated in DMEM supplemented with 10% FBS at 37° C. for 2 h in petri dish and washed with PBS to eliminate non-adherent cells. The adherent cells were used as peritoneal macrophages. Peritoneal macrophages were used after 3 days of culture.
Calcium imaging. HEK 293 cells, with or without transfection of Gpr37, GPR32, ChemR23 or ALX1 cDNA, were loaded with 5 μM Fura-2AM (Invitrogen) for 1 hour and then were resuspended in normal external buffer (140 NaCl, 5 KCl, 2 CaCl2, 2 MgCl2, 10 HEPES, in mM, titrated to pH 7.4 with NaOH) or external Ca^2+-free buffer (140 NaCl, 2 MgCl2, 5 EGTA, 10 HEPES, in mM, titrated to pH 7.4 with NaOH). Peritoneal macrophages, collected from WT and Gpr37 KO mice, were loaded with 5 μM […] (Invitrogen) for 1 hour and then were resuspended in normal external buffer. Images of the HEK 293 cells and macrophages with the excitation wavelength of 340 nm and 380 nm were captured with a cooled Digital CMOS camera (ORCA-Flash 4.0, Hamamatsu Photonics K.K, Japan). The ratio of fluorescence intensity of the two wavelengths in each experiment was analyzed using MetaFluor (Molecular Devices). The Shutter speed and wavelength was controlled by Lambda DG-4 system (Sutter instrument Co., Novato, CA). Values from each of the experiments were normalized to the baseline ratio of 340/380 nm.
Next, we conducted GPR37-mediated Ca^2+ imaging in native pMΦ from WT and Gpr37^−/− mice using Fluo-4AM as a Ca^2+ indicator, since this dye works better than Fura-2AM for pMΦ. […] As compared to iCa^2+ increase in GPR37-expressing HEK293 cells, NPD1 trigger a slow-onset but more persistent Ca^2+ response in pMΦ (FIG. 2B and FIG. 2G). A relatively rapid calcium response in HEK293 cells may result from over-expression of GPR37. A sustained iCa^2+ increase in pMΦ may result from the expression of transient receptor potential (TRP) ion channels in these immune cells. It is noteworthy that macrophages express TRPV2 or TRPM2, which are involved in phagocytosis during bacterial infection. […] NPD1-triggered iCa^2+ increase in pMΦ is also Gi-dependent, since PTX blocked this increase (FIG. 2H). For comparison, ATP-evoked iCa^2+ increase was not altered in GPR37-deficient pMΦ (FIG. 2H).

[2] = system: pMΦ; assay: ELISA of cytokines in zymosan-stimulated pMΦ cultures; format: cell-based, mouse
Method: FIG. 14A-FIG. 14C. NPD1 regulates cytokine expression in cultured macrophages via GPR37. ELISA showing the expression of pro-inflammatory cytokine IL-1β (FIG. 14A) and anti-inflammatory cytokines IL-10 (FIG. 14B) and TGF-β (FIG. 14C) in pMΦ from WT and Gpr37^−/− mice. pMΦ were stimulated with 100 μg/mL zymosan for 24 h. Note that NPD1 differentially regulates the expression of pro- and anti-inflammatory cytokines. *P<0.05; n=3 cultures/group. All the data are mean±SEM.
ELISA. Mouse ELISA kits for IL-1β, TGF-β and IL10 were purchased from R&D system (Minneapolis, MN, Catalog: MLB00C for IL-1β, Catalog: MB100B for TGF-β, and Catalog: M1000B for IL-10). ELISA was performed using culture medium and hindpaw skin tissues. Cultured cells and tissues were homogenized in a lysis buffer containing protease and phosphatase inhibitors. For each Elisa assay, 50 μg proteins or 50 μL of culture medium were used. ELISA was conducted according to manufacturer's instructions. The standard curve was included in each experiment.
as §1

[3] = pMΦ cultures, zymosan 100 μg/mL for 24 h

For `CC/C=C\C[C@H](O)\C=C/C=C/C=C/[C@H](O)C/C=C\C/C=C\CCC(=O)O` [NPD1, neuroprotectin D1], the “iCa2+ increase” value [1] was “abolished”, the IL-1β levels [2, 3] was “suppressed” and the IL-10 levels [2, 3] was “increased”. For the same molecule, the TGF-β levels [2, 3] was “increased” and the “dependence of cytokine effects on GPR37” value ([2]; pMΦ from WT and Gpr37−/− mice) was “required GPR37”.
